# Measured values taken from PubChem BioAssay AID248 (DTP/NCI, 2004).
# Values joined by “and” are separate entries in the source; they are usually repeats but may differ in a detail not shown here. Identical values can stand only once. Toxic doses and inconclusive results are not listed.
# Tested on: L1210 leukemia ip in BDF1 mice, survival T/C
# Assay: NCI In Vivo Anticancer Drug Screen. Data for tumor model L1210 Leukemia (intraperitoneal) in B6D2F1 (BDF1) mice
# Conditions: endpoint: mean survival time, higher = longer survival
# Procedure, shortened: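 Antitumor effect is assessed in tumor-bearing animals. Survival in the compound arm is compared with a vehicle-dosed control arm and expressed as their quotient.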
# [1] = dose: 100.0 mg/kg/injection, schedule: Q01DX009 (ip), vehicle: saline with Tween-80
# [2] = dose: 200.0 mg/kg/injection, schedule: Q01DX009 (ip), vehicle: saline with Tween-80
# [3] = dose: 100.0 mg/kg/injection, schedule: Q04DX003 (ip), vehicle: saline with Tween-80
# [4] = dose: 200.0 mg/kg/injection, schedule: Q04DX003 (ip), vehicle: saline with Tween-80
# [5] = dose: 400.0 mg/kg/injection, schedule: Q01DX009 (ip), vehicle: saline with Tween-80
# [6] = dose: 400.0 mg/kg/injection, schedule: Q04DX003 (ip), vehicle: saline with Tween-80
# [7] = dose: 100.0 mg/kg/injection, schedule: Q04DX002 (ip), vehicle: saline with Tween-80
# [8] = dose: 200.0 mg/kg/injection, schedule: Q04DX002 (ip), vehicle: saline with Tween-80
# [9] = dose: 400.0 mg/kg/injection, schedule: Q04DX002 (ip), vehicle: saline with Tween-80
# [10] = dose: 100.0 mg/kg/injection, schedule: Q04DX003 (ip), vehicle: Klucel (hydroxypropylcellulose) (HPC)
# [11] = dose: 200.0 mg/kg/injection, schedule: Q04DX003 (ip), vehicle: Klucel (hydroxypropylcellulose) (HPC)
# [12] = dose: 400.0 mg/kg/injection, schedule: Q04DX003 (ip), vehicle: Klucel (hydroxypropylcellulose) (HPC)
# [13] = dose: 100.0 mg/kg/injection, schedule: Q04DX003 (ip), vehicle: saline
# [14] = dose: 100.0 mg/kg/injection, schedule: Q01DX009 (ip), vehicle: Klucel (hydroxypropylcellulose) (HPC)
# [15] = dose: 200.0 mg/kg/injection, schedule: Q01DX009 (ip), vehicle: Klucel (hydroxypropylcellulose) (HPC)
# [16] = dose: 100.0 mg/kg/injection, schedule: Q01DX001 (ip), vehicle: saline
# [17] = dose: 200.0 mg/kg/injection, schedule: Q01DX001 (ip), vehicle: saline
# [18] = dose: 400.0 mg/kg/injection, schedule: Q01DX001 (ip), vehicle: saline
smiles,measurement,setting,value
Cn1c(=O)c2c(ncn2C)n(C)c1=O,T/C,"dose: 25.0 mg/kg/injection, schedule: Q01DX Z (ip), vehicle: saline",92 % of control
same,T/C,"dose: 50.0 mg/kg/injection, schedule: Q01DX Z (ip), vehicle: saline",90 % of control
same,T/C,[1],93 % of control
same,T/C,"dose: 100.0 mg/kg/injection, schedule: Q01DX Z (ip), vehicle: saline",92 % of control
same,T/C,"dose: 115.0 mg/kg/injection, schedule: Q01DX001 (ip), vehicle: saline",97 % of control
same,T/C,"dose: 175.0 mg/kg/injection, schedule: Q01DX001 (ip), vehicle: saline",111 % of control
same,T/C,[2],95 % of control
same,T/C,"dose: 200.0 mg/kg/injection, schedule: Q01DX Z (ip), vehicle: saline",90 % of control
same,T/C,"dose: 265.0 mg/kg/injection, schedule: Q01DX001 (ip), vehicle: saline",103 % of control
CC1CC(=O)NC(=O)N1 (stereo not given),T/C,[1],98 % of control
same,T/C,[3],105 % of control
same,T/C,[2],100 % of control
same,T/C,[4],93 % of control
same,T/C,[5],106 % of control
same,T/C,[6],107 % of control
CCCCCCCCCCCCN1CCSCC1,T/C,"dose: 25.0 mg/kg/injection, schedule: Q04DX003 (ip), vehicle: saline with Tween-80",95 % of control and 105 % of control
same,T/C,"dose: 50.0 mg/kg/injection, schedule: Q04DX003 (ip), vehicle: saline with Tween-80",104 % of control and 90 % of control
same,T/C,"dose: 100.0 mg/kg/injection, schedule: Q01DX001 (ip), vehicle: saline with Tween-80",105 % of control and 117 % of control
same,T/C,[7],95 % of control and 113 % of control
same,T/C,"dose: 200.0 mg/kg/injection, schedule: Q01DX001 (ip), vehicle: saline with Tween-80",94 % of control and 117 % of control
same,T/C,[8],95 % of control and 113 % of control
same,T/C,[4],93 % of control and 104 % of control and 110 % of control
same,T/C,"dose: 400.0 mg/kg/injection, schedule: Q01DX001 (ip), vehicle: saline with Tween-80",97 % of control and 104 % of control
same,T/C,[9],97 % of control and 98 % of control
same,T/C,[6],108 % of control and 90 % of control
C1CCC(P(C2CCCCC2)C2CCCCC2)CC1,T/C,[10],93 % of control
same,T/C,[11],93 % of control
same,T/C,[12],89 % of control
CN1CCN(C(c2ccccc2)c2ccc(Cl)cc2)CC1 (stereo not given),T/C,"dose: 6.25 mg/kg/injection, schedule: Q01DX009 (ip), vehicle: saline",102 % of control
same,T/C,"dose: 12.5 mg/kg/injection, schedule: Q01DX009 (ip), vehicle: saline",92 % of control
same,T/C,"dose: 12.5 mg/kg/injection, schedule: Q04DX003 (ip), vehicle: saline",95 % of control
same,T/C,"dose: 25.0 mg/kg/injection, schedule: Q01DX009 (ip), vehicle: saline",94 % of control
same,T/C,"dose: 25.0 mg/kg/injection, schedule: Q04DX003 (ip), vehicle: saline",111 % of control
same,T/C,"dose: 50.0 mg/kg/injection, schedule: Q01DX009 (ip), vehicle: saline",100 % of control
same,T/C,"dose: 50.0 mg/kg/injection, schedule: Q04DX003 (ip), vehicle: saline",90 % of control
same,T/C,[13],97 % of control
CN(C)c1ncc(C(N)=O)cn1,T/C,[14],97 % of control
same,T/C,[10],100 % of control
same,T/C,[15],108 % of control
same,T/C,[11],96 % of control
same,T/C,[12],110 % of control
CCC#CC(O)(C(=O)OCC)C1CCCCC1 (stereo not given),T/C,"dose: 100.0 mg/kg/injection, schedule: Q01DX001 (ip), vehicle: other",104 % of control
same,T/C,"dose: 200.0 mg/kg/injection, schedule: Q01DX001 (ip), vehicle: other",96 % of control
same,T/C,"dose: 400.0 mg/kg/injection, schedule: Q01DX001 (ip), vehicle: other",104 % of control
CN(CCOS(C)(=O)=O)CCOS(C)(=O)=O,T/C,"dose: 0.1 mg/kg/injection, schedule: Q01DX009 (ip), vehicle: saline",123 % of control
same,T/C,"dose: 0.17 mg/kg/injection, schedule: Q01DX009 (ip), vehicle: saline",118 % of control
same,T/C,"dose: 0.2 mg/kg/injection, schedule: Q01DX009 (ip), vehicle: saline",161 % of control
same,T/C,"dose: 0.26 mg/kg/injection, schedule: Q01DX009 (ip), vehicle: saline",122 % of control
same,T/C,"dose: 0.28 mg/kg/injection, schedule: Q01DX001 (ip), vehicle: saline",110 % of control
same,T/C,"dose: 0.4 mg/kg/injection, schedule: Q01DX001 (ip), vehicle: saline",115 % of control
same,T/C,"dose: 0.4 mg/kg/injection, schedule: Q01DX009 (ip), vehicle: saline",183 % of control
same,T/C,"dose: 0.44 mg/kg/injection, schedule: Q01DX001 (ip), vehicle: saline",121 % of control
same,T/C,"dose: 0.66 mg/kg/injection, schedule: Q01DX009 (ip), vehicle: saline",101 % of control
same,T/C,"dose: 0.8 mg/kg/injection, schedule: Q01DX009 (ip), vehicle: saline",163 % of control
same,T/C,"dose: 1.0 mg/kg/injection, schedule: Q01DX009 (ip), vehicle: saline",109 % of control
same,T/C,"dose: 1.5 mg/kg/injection, schedule: Q01DX009 (ip), vehicle: saline",88 % of control
same,T/C,"dose: 1.6 mg/kg/injection, schedule: Q01DX009 (ip), vehicle: saline",92 % of control
same,T/C,"dose: 2.25 mg/kg/injection, schedule: Q01DX001 (ip), vehicle: saline",156 % of control
same,T/C,"dose: 4.5 mg/kg/injection, schedule: Q01DX001 (ip), vehicle: saline",104 % of control
same,T/C,"dose: 38.0 micrograms/kg/injection, schedule: Q01DX009 (ip), vehicle: saline",113 % of control
same,T/C,"dose: 58.0 micrograms/kg/injection, schedule: Q01DX009 (ip), vehicle: saline",123 % of control
same,T/C,"dose: 88.0 micrograms/kg/injection, schedule: Q01DX009 (ip), vehicle: saline",115 % of control
same,T/C,"dose: 132.0 micrograms/kg/injection, schedule: Q01DX009 (ip), vehicle: saline",151 % of control
same,T/C,"dose: 200.0 micrograms/kg/injection, schedule: Q01DX009 (ip), vehicle: saline",90 % of control
CC(C)NCc1ccccc1,T/C,[7],95 % of control
same,T/C,[8],98 % of control
Cc1cc(C)c(I)c(C(=O)O)c1,T/C,[3],95 % of control
same,T/C,[4],104 % of control
same,T/C,[6],104 % of control
OB(O)CI,T/C,"dose: 5.0 mg/kg/injection, schedule: Q01DX001 (ip), vehicle: saline",86 % of control
same,T/C,"dose: 10.0 mg/kg/injection, schedule: Q01DX001 (ip), vehicle: saline",95 % of control
same,T/C,"dose: 20.0 mg/kg/injection, schedule: Q01DX001 (ip), vehicle: saline",97 % of control
OC(Cc1nccc2ccccc12)(C(F)(F)F)C(F)(F)F,T/C,[1],93 % of control
same,T/C,[3],100 % of control
same,T/C,[2],93 % of control
same,T/C,[4],101 % of control
same,T/C,[5],94 % of control
same,T/C,[6],100 % of control
S=C(Nc1ccccc1)Nc1ccccc1S,T/C,[14],97 % of control
same,T/C,[10],98 % of control
same,T/C,[15],92 % of control
same,T/C,[11],95 % of control
same,T/C,"dose: 400.0 mg/kg/injection, schedule: Q01DX009 (ip), vehicle: Klucel (hydroxypropylcellulose) (HPC)",92 % of control
same,T/C,[12],95 % of control
CCCN,T/C,[16],107 % of control
same,T/C,"dose: 100.0 mg/kg/injection, schedule: Q01DX009 (ip), vehicle: saline",106 % of control and 107 % of control
same,T/C,"dose: 100.0 mg/kg/injection, schedule: Q04DX002 (ip), vehicle: saline",103 % of control and 108 % of control
same,T/C,[13],103 % of control
same,T/C,[17],100 % of control
same,T/C,"dose: 200.0 mg/kg/injection, schedule: Q01DX009 (ip), vehicle: saline",93 % of control and 109 % of control
same,T/C,"dose: 200.0 mg/kg/injection, schedule: Q04DX002 (ip), vehicle: saline",99 % of control and 106 % of control
same,T/C,"dose: 200.0 mg/kg/injection, schedule: Q04DX003 (ip), vehicle: saline",96 % of control
same,T/C,[18],105 % of control
same,T/C,"dose: 400.0 mg/kg/injection, schedule: Q01DX009 (ip), vehicle: saline",111 % of control and 117 % of control
same,T/C,"dose: 400.0 mg/kg/injection, schedule: Q04DX002 (ip), vehicle: saline",105 % of control and 108 % of control
same,T/C,"dose: 400.0 mg/kg/injection, schedule: Q04DX003 (ip), vehicle: saline",96 % of control
CCCCCCCCCCCCc1ccc2c(ccc3ccccc32)c1,T/C,[16],95 % of control
same,T/C,[17],98 % of control
same,T/C,[18],98 % of control
Oc1ccc(Br)cc1C=Nc1cccc(C(F)(F)F)c1,T/C,[7],102 % of control
same,T/C,[8],100 % of control
same,T/C,[9],96 % of control
Brc1ccc(C2CCCCC2)cc1,T/C,[3],97 % of control
same,T/C,[4],93 % of control
same,T/C,[6],101 % of control
